According to patent publication US12091425B2 (AMGEN INC., priority 2016, dated 2024):

target: T1, Mcl-1/Bim interaction, recombinant human Mcl-1 (171-327) (Homo sapiens, UniProt Q07820); assay: Cell free Mcl-1: Bim Affinity Assay (Mcl-1 HTRF); type: binding; details: TR-FRET, 0.1 nM Mcl-1 (171-327), 0.05 nM biotin-Bim (51-76)
T1 construct: made in house
Outline: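 Read-out is time-resolved FRET after overnight incubation, using a biotin-labelled peptide from human Bim (51-76) as the binding partner; IC50 was derived from competition curves.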

T1 sequence (Q07820 171-327): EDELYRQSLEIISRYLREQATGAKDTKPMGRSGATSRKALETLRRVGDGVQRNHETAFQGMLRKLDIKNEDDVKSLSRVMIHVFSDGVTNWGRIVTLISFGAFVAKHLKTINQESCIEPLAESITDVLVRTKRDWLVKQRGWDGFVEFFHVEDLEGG

Row | Molecule | IC50
1 | CC[C@@H]1CC/C=C/[C@H](OCC2CCOCC2)[C@@H]2CC[C@H]2CN2C[C@@]3(CCCc4cc(Cl)ccc43)COc3ccc(cc32)C(=O)NS1(=O)=O [Example 983, (1S,3′R,6′R,7′S,8′E,12′R)-6-chloro-12′-ethyl-7′-(tetrahydro-2H-pyran-4-ylmethoxy)-3,4-dihydro-2H,15′H-spiro[naphthalene-1,22′-[20]oxa[13]thia[1,14]diazatetracyclo[14.7.2.0^3,6.0^19,24]pentacosa [8,16,18,24]tetraen]-15′-one 13′,13′-dioxide] | 1.23 nM
2 | CC[C@@H]1CC/C=C/[C@H](OCCN2CCOCC2)[C@@H]2CC[C@H]2CN2C[C@@]3(CCCc4cc(Cl)ccc43)COc3ccc(cc32)C(=O)NS1(=O)=O [Example 984, (1S,3′R,6′R,7′S,8′E,12′R)-6-chloro-12′-ethyl-7′-(2-(4-morpholinyl)ethoxy)-3,4-dihydro-2H,15′H-spiro[naphthalene-1,22′-[20]oxa[13]thia[1,14]diazatetracyclo[14.7.2.0^3,6.0^19,24]pentacosa [8,16,18,24]tetraen]-15′-one 13′,13′-dioxide] | 1.09 nM
3 | CC[C@@H]1CC/C=C/[C@H](OCC(=O)OC)[C@@H]2CC[C@H]2CN2C[C@@]3(CCCc4cc(Cl)ccc43)COc3ccc(cc32)C(=O)NS1(=O)=O [Example 991, methyl (((1S,3′R,6′R,7′S,8′E,12′R)-6-chloro-12′-ethyl-13′,13′-dioxido-15′-oxo-3,4-dihydro-2H-spiro[naphthalene-1,22′-[20]oxa[13]thia[1,14]diazatetracyclo[14.7.2.0^3,6.0^19,24]pentacosa [8,16,18,24]tetraen]-7′-yl)oxy)acetate] | 0.644 nM
4 | CC[C@@H]1CCCC[C@H](OCC(=O)O)[C@@H]2CC[C@H]2CN2C[C@@]3(CCCc4cc(Cl)ccc43)COc3ccc(cc32)C(=O)NS1(=O)=O [Example 994, (((1S,3′R,6′R,7′S,12′R)-6-chloro-12′-ethyl-13′,13′-dioxido-15′-oxo-3,4-dihydro-2H-spiro[naphthalene-1,22′-[20]oxa[13]thia[1,14]diazatetracyclo[14.7.2.0^3,6.0^19,24]pentacosa [16,18,24]trien]-7′-yl)oxy)acetic Acid] | 0.221 nM
5 | CC[C@@H]1CC/C=C/[C@H](OCC(=O)N2CCC(F)(F)CC2)[C@@H]2CC[C@H]2CN2C[C@@]3(CCCc4cc(Cl)ccc43)COc3ccc(cc32)C(=O)NS1(=O)=O [Example 998, (1S,3′R,6′R,7′S,8′E,12′R)-6-chloro-7′-(2-(4,4-difluoro-1-piperidinyl)-2-oxoethoxy)-12′-ethyl-3,4-dihydro-2H,15′H-spiro[naphthalene-1,22′-[20]oxa[13]thia[1,14]diazatetracyclo[14.7.2.0^3,6.0^19,24]pentacosa [8,16,18,24]tetraen]-15′-one 13′,13′-dioxide] | 2.14 nM
6 | CC[C@@H]1CC/C=C/[C@H](OCC(=O)N2CCS(=O)(=O)CC2)[C@@H]2CC[C@H]2CN2C[C@@]3(CCCc4cc(Cl)ccc43)COc3ccc(cc32)C(=O)NS1(=O)=O [Example 999, (1S,3′R,6′R,7′S,8′E,12′R)-6-chloro-7′-(2-(1,1-dioxido-4-thiomorpholinyl)-2-oxoethoxy)-12′-ethyl-3,4-dihydro-2H,15′H-spiro[naphthalene-1,22′-[20]oxa[13]thia[1,14]diazatetracyclo[14.7.2.0^3,6.0^19,24]pentacosa [8,16,18,24]tetraen]-15′-one 13′,13′-dioxide] | 0.373 nM
7 | CC[C@@H]1CC/C=C/[C@H](OCC(=O)Nc2ccncc2)[C@@H]2CC[C@H]2CN2C[C@@]3(CCCc4cc(Cl)ccc43)COc3ccc(cc32)C(=O)NS1(=O)=O [Example 1000, 2-(((1S,3′R,6′R,7′S,8′E,12′R)-6-chloro-12′-ethyl-13′,13′-dioxido-15′-oxo-3,4-dihydro-2H-spiro[naphthalene-1,22′-[20]oxa[13]thia[1,14]diazatetracyclo[14.7.2.0^3,6.0^19,24]pentacosa [8,16,18,24]tetraen]-7′-yl)oxy)-N-4-pyridinylacetamide] | 3.14 nM
8 | CC[C@@H]1CC/C=C/[C@H](NC(=O)C(C)C)[C@@H]2CC[C@H]2CN2C[C@@]3(CCCc4cc(Cl)ccc43)COc3ccc(cc32)C(=O)NS1(=O)=O [Example 1077, N-((1S,3′R,6′R,7′S,8′E,12′R)-6-chloro-12′-ethyl-13′,13′-dioxido-15′-oxo-3,4-dihydro-2H-spiro[naphthalene-1,22′-[20]oxa[13]thia[1,14]diazatetracyclo[14.7.2.0^3,6.0^19,24]pentacosa [8,16,18,24]tetraen]-7′-yl)-2-methylpropanamide] | 3.45 nM
9 | CC[C@@H]1CCCC[C@@H](NC(C)=O)[C@@H]2CC[C@H]2CN2C[C@@]3(CCCc4cc(Cl)ccc43)COc3ccc(cc32)C(=O)NS1(=O)=O [Example 1080, N-((1S,3′R,6′R,7′R,12′R)-6-chloro-12′-ethyl-13′,13′-dioxido-15′-oxo-3,4-dihydro-2H-spiro[naphthalene-1,22′-[20]oxa[13]thia[1,14]diazatetracyclo[14.7.2.0^3,6.0^19,24]pentacosa [16,18,24]trien]-7′-yl)acetamide] | 1.14 nM
10 | CC[C@@H]1CC/C=C/[C@@H](NC(=O)C(C)C)[C@@H]2CC[C@H]2CN2C[C@@]3(CCCc4cc(Cl)ccc43)COc3ccc(cc32)C(=O)NS1(=O)=O [Example 1081] | 0.947 nM
11 | CC[C@@H]1CC/C=C\[C@@H](NC(=O)C(C)C)[C@@H]2CC[C@H]2CN2C[C@@]3(CCCc4cc(Cl)ccc43)COc3ccc(cc32)C(=O)NS1(=O)=O [Example 1082] | 18 nM
12 | CC[C@@H]1CCCC[C@@H](NC(=O)C(C)C)[C@@H]2CC[C@H]2CN2C[C@@]3(CCCc4cc(Cl)ccc43)COc3ccc(cc32)C(=O)NS1(=O)=O [Example 1083] | 2.19 nM
13 | O=C1NS(=O)(=O)CCCCCC[C@@H]2CC[C@H]2CN2C[C@@]3(CCCc4cc(Cl)ccc43)COc3ccc1cc32 [Example 1084, (1S,3′R,6′R)-6-chloro-3,4-dihydro-2H,15′H-spiro[naphthalene-1,22′-[20]oxa[13]thia[1,14]diazatetracyclo[14.7.2.0^3,6.0^19,24]pentacosa[16,18,24]trien]-15′-one 13′,13′-dioxide] | 13.6 nM
14 | O=C1NS(=O)(=O)C[C@H](CO)C/C=C/[C@H](O)[C@@H]2CC[C@H]2CN2C[C@@]3(CCCc4cc(Cl)ccc43)COc3ccc1cc32 [Example 1085, (1S,3′R,6′R,7′S,8′E,11′S)-6-chloro-7′-hydroxy-11′-(hydroxymethyl)-3,4-dihydro-2H,15′H-spiro [naphthalene-1,22′-[20]oxa[13]thia[1,14]diazatetracyclo[14.7.2.0^3,6.0^19,24]pentacosa [8,16,18,24]tetraen]-15′-one 13′,13′-dioxide] | 2.06 nM
15 | CO[C@@H]1/C=C/CCCS(=O)(=O)NC(=O)c2ccc3c(c2)N(C[C@@H]2CC[C@H]21)C[C@@]1(CCCc2cc(Cl)ccc21)CO3 [Example 1091, (1S,3′R,6′R,7′R,8′E)-6-chloro-7′-methoxy-3,4-dihydro-2H,15′H-spiro [naphthalene-1,22′-[20]oxa[13]thia[1,14]diazatetracyclo[14.7.2.0^3,6.0^19,24]pentacosa [8,16,18,24]tetraen]-15′-one 13′,13′-dioxide] | 3.69 nM
16 | CC[C@@H]1CC/C=C/[C@@H](OC)[C@@H]2CC[C@H]2CN2C[C@@]3(CCCc4cc(Cl)ccc43)COc3ccc(cc32)C(=O)NS1(=O)=O [Example 1093, (1S,3′R,6′R,7′R,8′E,12′R)-6-chloro-7′-methoxy-12′-ethyl-3,4-dihydro-2H,15′H-spiro [naphthalene-1,22′-[20]oxa[13]thia[1,14]diazatetracyclo[14.7.2.0^3,6.0^19,24]pentacosa [8,16,18,24]tetraen]-15′-one 13′,13′-dioxide] | 2.54 nM
17 | CO[C@@H]1CCCCCS(=O)(=O)NC(=O)c2ccc3c(c2)N(C[C@@H]2CC[C@H]21)C[C@@]1(CCCc2cc(Cl)ccc21)CO3 [Example 1094, (1S,3′R,6′R,7′R)-6-chloro-7′-methoxy-3,4-dihydro-2H,15′H-spiro [naphthalene-1,22′-[20]oxa[13]thia[1,14]diazatetracyclo[14.7.2.0^3,6.0^19,24]pentacosa [16,18,24]trien]-15′-one 13′,13′-dioxide] | 17.8 nM
18 | CS(=O)(=O)CCO[C@@H]1/C=C/CCCS(=O)(=O)NC(=O)c2ccc3c(c2)N(C[C@@H]2CC[C@H]21)C[C@@]1(CCCc2cc(Cl)ccc21)CO3 [Example 1095, (1S,3′R,6′R,7′R,8′E)-6-chloro-7′-(2-(methylsulfonyl)ethoxy)-3,4-dihydro-2H,15′H-spiro [naphthalene-1,22′-[20]oxa[13]thia[1,14]diazatetracyclo[14.7.2.0^3,6.0^19,24]pentacosa [8,16,18,24]tetraen]-15′-one 13′,13′-dioxide] | 1.29 nM
19 | CS(=O)(=O)CCO[C@@H]1CCCCCS(=O)(=O)NC(=O)c2ccc3c(c2)N(C[C@@H]2CC[C@H]21)C[C@@]1(CCCc2cc(Cl)ccc21)CO3 [Example 1096, (1S,3′R,6′R,7′R)-6-chloro-7′-(2-(methylsulfonyl)ethoxy)-3,4-dihydro-2H,15′H-spiro [naphthalene-1,22′-[20]oxa[13]thia[1,14]diazatetracyclo[14.7.2.0^3,6.0^19,24]pentacosa [16,18,24]trien]-15′-one 13′,13′-dioxide] | 3.48 nM

same assay, conditions: cell free Mcl-1:Bim TR-FRET, recombinant human Mcl-1 (171-327)

Row | Molecule | IC50
20 | (1S,3′R,6′S,14′S,15′R)-6-chloro-3,4-dihydro-2H,9′H,17′H-spiro[naphthalene-1,24′-[22]oxa[15]thia[1,10,16]triazapentacyclo[16.7.2.1^10,14.0^3,6.0^21,26]octacosa[18,20,26]triene]-9′,17′-dione 15′-oxide or (1S,3′R,6′S,14′S,15′S)-6-chloro-3,4-dihydro-2H,9′H,17′H-spiro[naphthalene-1,24′-[22]oxa[15]thia[1,10,16]triazapentacyclo[16.7.2.1^10,14.0^3,6.0^21,26]octacosa[18,20,26]triene]-9′,17′-dione 15′-oxide [Example 948] | 10.3 nM
